Marks after values point to notes of the source that are not given here.
Columns and labels:
[1] = Antioxidant assay by DPPH scavenging
[2] = biological target: Acetylcholinesterase (AChE) (Homo sapiens, UniProt P22303); assay: Acetylcholinesterase inhibition screening; type: biochemical
male Wistar rats = type: in vivo, rat
[3] = test system: liver, kidneys, heart, and brain; assay: Histopathological examination of chronic toxicity study; type: in vivo, mice; details: H&E
AD-induced rats = assay: T-maze test in AlCl3-induced AD rats; type: in vivo, rat; details: Treatment 4 weeks; for T-maze test, time taken to reach food: seconds, n = 10
[4] = test system: Alzheimer's disease-induced rats; assay: Beam balance test in AlCl3-induced AD rats; type: in vivo, rat; details: Treatment 4 weeks
[5] = test system: brain tissue of AD-induced rats; assay: Brain oxidative stress markers; type: in vivo, rat
Bcl-2 gene = Bcl-2 gene expression in brain samples of AD induced rats; type: in vivo, rat; details: AD rats treated vs AD rats
Bax gene = Bax gene expression in brain samples of AD induced rats; type: in vivo, rat; details: AD rats treated vs AD rats
Tau gene = Tau gene expression in brain samples of AD induced rats; type: in vivo, rat; details: AD rats treated vs AD rats
Wistar rats = assay: Acute toxicity, oral, rats
[6] = male rats, 10 mg per kg body weight
[7] = male rats, 10 mg per kg body weight, one month

Acetylcholinesterase (AChE), sequence (P22303 32-614, species assumed): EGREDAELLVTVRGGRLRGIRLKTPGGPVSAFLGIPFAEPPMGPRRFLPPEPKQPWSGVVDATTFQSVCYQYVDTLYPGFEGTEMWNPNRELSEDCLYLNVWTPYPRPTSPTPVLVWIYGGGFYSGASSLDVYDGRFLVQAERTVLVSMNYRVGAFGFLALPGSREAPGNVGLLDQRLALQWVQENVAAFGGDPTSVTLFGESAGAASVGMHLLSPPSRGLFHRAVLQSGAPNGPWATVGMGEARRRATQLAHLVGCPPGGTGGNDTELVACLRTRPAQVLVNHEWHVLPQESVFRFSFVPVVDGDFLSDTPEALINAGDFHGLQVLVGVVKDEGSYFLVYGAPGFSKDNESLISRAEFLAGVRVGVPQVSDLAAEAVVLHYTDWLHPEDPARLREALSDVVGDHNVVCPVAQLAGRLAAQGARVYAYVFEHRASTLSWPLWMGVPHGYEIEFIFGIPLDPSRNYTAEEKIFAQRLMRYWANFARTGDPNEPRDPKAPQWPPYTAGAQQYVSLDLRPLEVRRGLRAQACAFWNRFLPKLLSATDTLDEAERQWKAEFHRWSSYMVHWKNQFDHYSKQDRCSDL

SMILES: O=C1O[C@H]([C@@H](O)CO)C(O)=C1O [Vitamin C, ascorbic acid, reference compound]
- Percent of antioxidant activity (DPPH scavenging) ([1]; Concentration (0.01 mg)): 80.00 ± 5.00%
- Percent of antioxidant activity (DPPH scavenging) ([1]; Concentration (0.05 mg)): 89.00 ± 6.99%

SMILES: Cc1cc(=O)oc2cc(OCC(=O)NN=C3CCc4ccccc43)ccc12 [Compound 4c, N′-(2,3-Dihydro-1H-inden-1-ylidene)-2-((4-methyl-2-oxo-2H-chromen-7-yl)oxy)acetohydrazide]
- IC50 [2]: 2.21 µM
- Percent of antioxidant activity (DPPH scavenging) ([1]; Concentration (0.01 mg)): 28.00 ± 0.4%
- Percent of antioxidant activity (DPPH scavenging) ([1]; Concentration (0.05 mg)): 57.14 ± 2.77%
- Signs of chronic toxicity (male Wistar rats; 10 mg per kg b.wt orally, male Wistar rats, one month): didn't see any indication of harmfulness
- Change in blood profile levels vs control rats (male Wistar rats; 10 mg per kg b.wt, one month): insignificant changes
- Change in creatinine level vs untreated group (male Wistar rats; 10 mg per kg b.wt, one month): significant increase
- Change in hepatic enzyme levels (AST, ALT, and ALP) vs control group (male Wistar rats; 10 mg per kg b.wt, one month): insignificant difference
- Change in total urea level vs untreated group (male Wistar rats; 10 mg per kg b.wt, one month): insignificant change
- ALP (male Wistar rats; [6]): 136.00 ± 9.00 ^a U/l
- ALT (male Wistar rats; [6]): 79.00 ± 4.40 ^a U/l
- AST (male Wistar rats; [6]): 32.00 ± 1.20 ^a U/l
- Creatinine (male Wistar rats; [6]): 2.80 ± 0.07 mg/dL
- Urea (male Wistar rats; [6]): 20.00 ± 1.57 mg/dL
- Haematocrit (male Wistar rats; [7]): 45.00 ± 1.87 ^a %
- Hemoglobin (Hb) (male Wistar rats; [7]): 14.58 ± 0.59 ^a g L^−1
- Lymphocyte (male Wistar rats; [7]): 7.62 ± 0.66 ^a 10^3 cm^−1
- MPV (male Wistar rats; [7]): 8.66 ± 0.19 ^a fL
- Mean corpuscular hemoglobin (MCH) (male Wistar rats; [7]): 17.78 ± 0.88 ^a pg
- Mean corpuscular hemoglobin concentration (MCHC) (male Wistar rats; [7]): 33.98 ± 0.25 ^a g dL^−1
- Mean corpuscular volume (MCV) (male Wistar rats; [7]): 59.00 ± 0.03 ^a fL
- Monocyte (male Wistar rats; [7]): 1.93 ± 0.06 ^a 10^3 cm^−1
- Neutrophils (male Wistar rats; [7]): 2.39 ± 0.09 ^a 10^3 cm^−1
- Platelets (male Wistar rats; [7]): 465.00 ± 12.00 ^a 10^3 mm^−1
- RDW-CV (male Wistar rats; [7]): 15.80 ± 0.19 ^a %
- Red blood cells (RBCs) (male Wistar rats; [7]): 8.00 ± 0.08 ^a million cells per mm
- White blood cells WBCs (male Wistar rats; [7]): 10.89 ± 1.90 ^a 10^3 cmm^−1
- Heart and brain histopathology [3]: no histopathological damage
- Kidney histopathology [3]: no histopathological alterations
- Liver histopathology [3]: slight Kupffer cell proliferation
- T-maze test, % improvement (AD-induced rats): 148.37%
- T-maze test, time taken to reach food (AD-induced rats): 28.20 ± 1.80 Sc
- Beam balance test time [4]: 8.99 ± 1.00 Sc
- Beam balance test, % improvement [4]: 60.00%
- GSH % improvement ([5]; AD-induced rats): 27.17%
- MDA % improvement ([5]; AD-induced rats): 90.64%
- GSH ([5]; AD-induced rats, n = 8): 21.66 ± 1.21 mg per g tissues
- MDA ([5]; AD-induced rats, n = 8): 22.43 ± 1.66 mg per g tissues
- GSH % change to disease ([5]; vs AD group): 59.26%
- MDA % change to disease ([5]; vs AD group): 32.19%
- Expression of Bcl-2 gene (Bcl-2 gene): improved expression
- Expression of Bax gene (Bax gene): reduced expression
- Expression of Tau gene (Tau gene): reduced expression
- Mortality (Wistar rats; 50 mg per kg b.wt, rats): No mortality
- Mortality (Wistar rats; 100 mg per kg b.wt, post 24 h, one rat of 4): 25%

SMILES: Cc1cc(=O)oc2cc(OCC(=O)NN=Cc3ccc(C(=O)O)cc3)ccc12 [Compound 4d, 4-((2-(2-((4-Methyl-2-oxo-2H-chromen-7-yl)oxy)acetyl) hydrazineylidene)methyl) benzoic acid]
- IC50 [2]: 3.15 µM
- Percent of antioxidant activity (DPPH scavenging) ([1]; Concentration (0.01 mg)): 4.5 ± 0.4%
- Percent of antioxidant activity (DPPH scavenging) ([1]; Concentration (0.05 mg)): 10.3 ± 0.33%

SMILES: Cc1cc(=O)oc2cc(OCC(=O)NN=C3C(=O)Nc4ccccc43)ccc12 [Compound 4b, 2-((4-Methyl-2-oxo-2H-chromen-7-yl)oxy)-N′-(2-oxoindolin-3-ylidene) acetohydrazide]
- IC50 [2]: 20.9 µM
- Percent of antioxidant activity (DPPH scavenging) ([1]; Concentration (0.01 mg)): 31.8 ± 1.2%
- Percent of antioxidant activity (DPPH scavenging) ([1]; Concentration (0.05 mg)): 35.00 ± 1.00%

SMILES: Cc1cc(=O)oc2cc(OCC(=O)NN=C3CCCc4ccccc43)ccc12 [Compound 4a, N′-(3,4-dihydronaphthalen-1(2H)-ylidene)-2-((4-methyl-2-oxo-2H-chromen-7-yl)oxy)acetohydrazide]
- IC50 [2]: 13.1 µM
- Percent of antioxidant activity (DPPH scavenging) ([1]; Concentration (0.01 mg)): 31.8 ± 0.2%
- Percent of antioxidant activity (DPPH scavenging) ([1]; Concentration (0.05 mg)): 40.9 ± 3.1%

SMILES: COc1cc2c(cc1OC)C(=O)C(CC1CCN(Cc3ccccc3)CC1)C2 (centres unmarked) [Donepezil, reference compound]
- T-maze test, % improvement (AD-induced rats): 181.70%
- T-maze test, time taken to reach food (AD-induced rats): 23.10 ± 1.70 Sc
- Beam balance test time [4]: 9.80 ± 0.88 Sc
- Beam balance test, % improvement [4]: 67.98%
